Results: PMC11314561, “Design and Synthesis of Novel Aminoindazole-pyrrolo[2,3-b]pyridine Inhibitors of IKKα That Selectively Perturb Cellular Non-Canonical NF-κB Signalling” (Molecules, 2024)

Tests used:
IKKβ = target: T1, IKKβ (Homo sapiens, UniProt O14920); assay: DELFIA kinase assay, IKKβ; assay type: biochemical; conditions: read-out: Ki Values IKKβ
T1 sequence (O14920 1-756): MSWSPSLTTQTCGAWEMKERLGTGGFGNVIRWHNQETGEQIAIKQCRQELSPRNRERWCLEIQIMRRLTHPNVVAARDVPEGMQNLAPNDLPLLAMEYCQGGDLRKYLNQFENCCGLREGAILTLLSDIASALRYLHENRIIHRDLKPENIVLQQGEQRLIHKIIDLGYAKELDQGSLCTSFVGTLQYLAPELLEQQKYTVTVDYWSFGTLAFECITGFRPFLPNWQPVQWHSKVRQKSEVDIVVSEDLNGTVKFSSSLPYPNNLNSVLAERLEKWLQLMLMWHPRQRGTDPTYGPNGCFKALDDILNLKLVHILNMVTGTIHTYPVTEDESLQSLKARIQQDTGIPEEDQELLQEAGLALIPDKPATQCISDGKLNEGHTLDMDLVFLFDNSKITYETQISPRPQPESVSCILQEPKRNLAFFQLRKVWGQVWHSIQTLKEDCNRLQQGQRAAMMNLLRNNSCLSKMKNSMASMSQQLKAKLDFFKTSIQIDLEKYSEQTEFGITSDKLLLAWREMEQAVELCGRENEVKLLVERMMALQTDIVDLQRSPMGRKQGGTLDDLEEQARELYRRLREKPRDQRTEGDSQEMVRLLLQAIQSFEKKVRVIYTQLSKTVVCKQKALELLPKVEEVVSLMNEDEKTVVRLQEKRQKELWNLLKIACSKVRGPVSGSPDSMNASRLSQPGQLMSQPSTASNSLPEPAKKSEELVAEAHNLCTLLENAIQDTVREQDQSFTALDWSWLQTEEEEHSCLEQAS
Experimental: (§1) IKKα and IKKβ inhibitory activity were determined using a dissociation-enhanced ligand fluorescent immunoassay (DELFIA) based on the protocol of HTScan™ IKKβ Kinase Assay (Cell Signaling Technology, Danvers, MA, USA) as described in [24].

[1] = Mouse hepatocyte intrinsic clearance and half-life; assay type: in vitro ADME; conditions: mouse CD1 hepatocytes
Experimental: Intrinsic clearance and half-life were determined using cryopreserved pooled mouse CD1 hepatocytes. Test compounds were analysed at 1 µM in Williams Media E buffer (0.01% DMSO) at a cell density of 0.5 × 10^6 cells mL^–1. Cells were incubated at 37 °C for one hour with shaking, and compound depletion was measured by LC-MS/MS at six time points (0.25, 5, 10, 20, 40, and 60 min).

Turbidimetric solubility = assay type: physicochemical; conditions: pH 7.4, aqueous buffer, kinetic from dmso stock, 0.01 M phosphate-buffered saline pH7.4
Experimental: Pharmacokinetic studies were contracted to Sygnature Discovery Limited. Turbidimetric Solubility was determined by diluting compound solutions (1 μM, 3 μM, 10 μM, 30 μM, 100 μM) prepared in DMSO into 0.01 M phosphate-buffered saline pH7.4. Turbidimetry was used as the endpoint by measuring absorbance at 620 nm.

IKKα = target: T2, IKKα (Homo sapiens, UniProt O15111); assay: DELFIA kinase assay, IKKα; assay type: biochemical; conditions: DELFIA kinase assay
T2 sequence (O15111 1-745): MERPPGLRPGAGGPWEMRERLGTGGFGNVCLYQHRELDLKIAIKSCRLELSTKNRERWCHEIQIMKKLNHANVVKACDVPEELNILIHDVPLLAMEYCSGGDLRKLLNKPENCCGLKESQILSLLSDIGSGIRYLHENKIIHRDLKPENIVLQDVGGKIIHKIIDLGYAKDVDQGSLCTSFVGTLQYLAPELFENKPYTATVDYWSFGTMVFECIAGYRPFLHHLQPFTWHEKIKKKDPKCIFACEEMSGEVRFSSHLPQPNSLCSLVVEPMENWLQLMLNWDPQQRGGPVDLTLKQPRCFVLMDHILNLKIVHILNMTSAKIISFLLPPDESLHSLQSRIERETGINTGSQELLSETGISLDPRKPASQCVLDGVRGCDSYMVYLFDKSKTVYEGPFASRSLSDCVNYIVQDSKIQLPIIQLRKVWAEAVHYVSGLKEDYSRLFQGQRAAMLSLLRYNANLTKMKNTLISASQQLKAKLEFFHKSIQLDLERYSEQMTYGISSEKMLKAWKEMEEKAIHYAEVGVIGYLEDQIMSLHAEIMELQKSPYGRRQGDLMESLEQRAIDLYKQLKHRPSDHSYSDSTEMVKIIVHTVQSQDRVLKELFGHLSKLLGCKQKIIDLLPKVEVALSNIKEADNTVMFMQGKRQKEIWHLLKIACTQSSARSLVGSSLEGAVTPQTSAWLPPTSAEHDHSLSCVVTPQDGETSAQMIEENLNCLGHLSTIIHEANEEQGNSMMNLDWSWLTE
From the text: To examine the pyrrolo[2,3-b]pyridines as an alternative scaffold, we adopted the AIPP core because it had similar dimensions to SU909 (1), with HBD/HBA motifs positioned at the scaffold extremities to interact with both the hinge region and the G-loop wall of IKKα, a rationale we had previously proposed as the basis for imparting selectivity. A preliminary set of AIPP derivatives was designed and synthesised to explore its utility as an IKK-targeting scaffold, whilst incorporating additional functionality through which to introduce selectivity for the IKKα isoform (2–4; Figure 3). This was achieved by initially adopting two different approaches: either appending a hydrophobic moiety to the pyrrolo[2,3-b]pyridine motif as a fused form to afford the tricyclic derivatives 2 and 3, or as a phenyl substituent to introduce flexibility with respect to the central pyrrolo[2,3-b]pyridine moiety in 4. When assessed against IKKα and IKKβ using our in-house DELFIA kinase assay […] The pyrrolo[2,3-b]pyridine was bound to the hinge region in the classical HBA/HBD motif with the GK+3 amide backbone, whilst the aminoindazole projected towards the top of the pocket to interact with the G-loop (Figure 4A). […] In both isoforms, the 2-phenyl moiety protruded away from the hinge towards the exposed solvent area.
as §1

Ki (IKKβ): 12 nM | half-life at 1 µM ([1]; cryopreserved pooled hepatocytes): 2.02 h | Mouse Hepatocyte Clearance ([1]; 1 µM): 11 μL/min/10^6 Cells | solubility (Turbidimetric solubility): > 100 µM | Ki (IKKα): 6 nM
SMILES: Nc1n[nH]c2ccc(-c3ccnc4[nH]c(-c5ccnc(OCc6ccncc6)c5)cc34)cc12 [Compound 6k]
